# “Also recorded” adds a separate entry of the source.
# Columns and labels:
# Ch-1 cells [1] = test: Detection of cell death in Ch-1 cells; format: cell-based, human; conditions: 0.8 μM
# Protocol: Cell Culture. Human Chondrosarcoma cell line (Ch-1) was isolated from a portion of chondrosarcoma tumor. The Ch-1 cell line was maintained in RPMI-1640 supplemented with 10% FBS and at 37° C. in a humidified, 5% CO2 atmosphere. Human chondrocytes were obtained from Dr. Davis Adkisson (ISTO Technologies, St. Louis) or isolated from macroscopically intact tissue obtained from total joint arthroplasty as described (Bassleer et al., 1998). HeLa 229 cells and MDA-MB 231 cell lines were provided by Dr. Kathy Weilbaecher (Washington University) and were cultured in RPMI medium supplemented with 10% FBS. HUVEC cells were a gift from Dr. William Frazier (Washington University) and were cultured in M199 Earle's medium with 10 units/ml of penicillin, 5 μg/ml streptomycin and 0.25 μg/ml Fungizone supplemented with 10% FBS, 0.1 mg/ml L-glutamine, 25 mM Hepes, 16 units/ml of heparin (Sigma) and 0.1 mg/ml endothelial cell mitogen (Biochemical Technologies).
# (§1) Detection of Cell Death. Cells were cultured to confluence in a 24-well plate pre-coated with type I collagen, fibronectin (Sigma), and ECM Matrigel (Becton Dickinson). Proteins in serum-free medium were added to the cells. Cells were monitored by light microscopy and images were digitally photographed using a Q capture Retiga 2000R camera. Quantification of cells remaining in the well was performed by washing with PBS for three times, fixing with 4% paraformaldehyde. The cells per field (×400) were counted for three field per well (3 wells per measurement). The mean number and standard deviation (SD) were calculated.
# HUVEC cells [2] = test: Tube formation assay; format: cell-based, human
# Protocol: Tube Formation Assay. The tube formation assay using HUVEC cells was performed as described with some modification. Briefly, a suspension of 7.5×10^4 cells/well in complete medium was seeded into a Matrigel-coated 24-well plate in the presence of recombinant PIIBNP or GST (0-10 μM). The formation of tubes was evaluated using light microscopy and quantification was performed using a Q Capture Pro imaging software. Branch points per field were counted from three fields for each treatment.
# rings of rat aorta = test: Aortic ring formation assay
# Protocol: FIG. 8 depicts a graph and photograph showing rat aortic ring formation. Angiogenesis was assayed by culturing rings of rat aorta in three-dimensional collagen gel. The culture was performed at 37° C. in a humidified environment for a week in the presence FGF and mPIIBNP or PIIBNP (0.1 to 3 mM). The microvessel outgrowth was examined and visualized every second day with an Olympus microscope. The pictures were taken before the measurement of the microvessels. (FIG. 8A) The length of microvessels was measured and total length for each measurement was added (FIG. 8B). PIIBNP inhibited aortic ring formation, with an IC50 of less than 0.1 μM.
# Aortic Ring Formation Assay. Angiogenesis was assayed by culturing rings of rat aorta in three-dimensional collagen gels as reported. The cultures were kept at 37° C. in a humidified environment for a week in the presence of FGF and GST or PIIBNP (0.1-10 μM). The microvessel outgrowth was examined every second day with an Olympus microscope. The length of microvessels was measured and total length for each measurement was added.
# HUVEC cells [3] = test: HUVEC cell death; format: cell-based, human
# Protocol: FIG. 6 depicts photographs and graphs showing that PIIBNP inhibits angiogenesis. […] Quantification of tube formation was calculated based on branch points per field of view (FIG. 6C) for each treatment ranging from 0.1 μM to 10 μM of PIIBNP. […] GST (▴) and PIIANP (●) had no effect on the cells.
# As a second test for angiogenesis, we tested the ability of PIIBNP to inhibit outgrowth of endogenous endothelial cells from freshly isolated rat aorta. […] In order to determine whether PIIBNP caused endothelial cell death, the number of HUVEC cells present after incubation with PIIBNP was determined (FIGS. 6E and 8). Tube formation was inhibited by 50% with 0.1 μM PIIBNP, with no cell death. […] Consequently, PIIBNP can inhibit angiogenesis in a cell line and in endogenous endothelial cells mediated by integrins αVβ3 and αVβ5.
# β1, α4, and α5 integrin = test: Cell surface labeling and GST pull-down with immunoblotting (other integrins); format: binding, human; conditions: b23: β1 only; b113: β1, α4 and α5
# Protocol: Immunoblotting. Western blotting was performed as described (7). Blots were probed with the following primary antibodies: rabbit anti αV, α2, α3, α5, β1, β3, β5 integrin and goat anti actin (Saint Cruz), chicken anti PIIBNP antiserum, and mouse anti exon 2 antiserum.
# Cell Surface labeling and GST Pull-down Assay. Ch-1 cells were incubated with EZ-link Sulfo-NHS-Biotin reagent for 30 mins. according to the product instruction (Sigma). After 3 washes with 0.1 M glycine in PBS, the cells were lysed with a lysis buffer described above. The lysate was incubated with glutathione derivatized agarose beads previously bound with GST, PIIANP, PIIBNP or mPIIBNP for 1 hr. at RT. […] The membrane was washed and incubated with antibodies and then incubated with a secondary antibody coupled to horseradish peroxidase. The antibody complex was visualized by enhanced chemiluminescence.
# Ch-1 cells [4] = test: Internalization of propeptides (immunostaining); format: cell-based, human
# Description: Ch-1 cells exposed to GST-PIIBNP and GST-PIIANP were immunostained with immunospecific antibodies. […] The internalization of PIIBNP may be exploited to target exogenous agents to cells expressing αVβ3 and αVβ5 integrins.
# siRNA-treated Ch-1 cells = test: Cell death in integrin αV siRNA-treated Ch-1 cells; format: cell-based, human; conditions: 0.8 μM, serum-free medium, 24 hrs
# Protocol: as §1
# SiRNA Interference. Ch-1 cells were grown to 60-80% confluence in 6 well plates in Opti-Mem medium (Invitrogen) without antibiotics and serum. A reported method (6) is used in the design of siRNAs, sense and antisense oligonucleotides. The final concentration of oligonucleotides was 0.05 μM. Transfection was performed using a lipofectamine kit (InVitrogen). Half of the wells were stimulated with 200 ng/ml PMA (phorbol 12-myristate 13-acetate) after 4 hours incubation with oligonucleotides. Total RNA was collected via the TriZol method after incubation for 44 hours. 1 μg of total RNA was reverse transcribed with Superscript RT II in a 40 μl volume. […] Bands were quantified with Image Quant software.
substance,measurement,setting,value
"PIIBNP: Recombinant human Type IIB procollagen NH2-propeptide (exons 3-8, lacking exon 2), expressed as GST fusion protein",cell survival,Ch-1 cells [1],20-30%
same,induction of cell death in Ch-1 cells,"Ch-1 cells [1]; serum free medium, 24 hrs, type I collagen, fibronectin or Matrigel coated plates",resulted in cell death in a concentration and time-dependent manner; also recorded: induced cell death
same,tube formation inhibited,HUVEC cells [2]; 0.1 μM,50%
same,inhibition of tube formation,"HUVEC cells [2]; Matrigel-coated plates, 0-10 μM",able to inhibit the formation of tubes in a dose-dependent manner
same,inhibition of endothelial outgrowth from rat aorta,rings of rat aorta; freshly isolated rat aorta,able to inhibit endothelial outgrowth in a concentration dependent manner
same,IC50,"rings of rat aorta; three-dimensional collagen gel, FGF, a week, read-out: IC50 of inhibition of aortic ring formation",< 100 nM
same,HUVEC cell death,HUVEC cells [3]; 0.1 μM,no cell death
same,HUVEC cell death,"HUVEC cells [3]; 60 hrs, 37° C., higher concentrations",cell death was induced; also recorded: caused cell death in a concentration-dependent manner
same,reaction of integrin antibodies with material pulled out by PIIBNP,"β1, α4, and α5 integrin",did not react
same,internalization into cells,Ch-1 cells [4],is internalized
same,colocalization with actin filaments,Ch-1 cells [4]; 30 minutes of exposure,colocalized with actin filaments
same,localization to the nucleus,Ch-1 cells [4]; 2 hours of exposure,localized to the nucleus; also recorded: colocalized with the nucleus
same,induction of cell death in αV siRNA-treated Ch-1 cells,siRNA-treated Ch-1 cells,not able to induce cell death; also recorded: did not induce cell death

# From US7851436B2, “Inhibition of migration and induction of cell death by the type II collagen amino propeptides” (Washington University, priority 2007, dated 2010)
